Laboratory results from patent US20250263404A1, “AMINOPYRIDINES AS ACTIVATORS OF PI3 KINASE” (UCL Business Ltd, priority 2021, published 2025).

What was measured:
G106V mutant of p110α = target: T1, G106V mutant of p110α (Homo sapiens, UniProt P42336, G106V); experiment: ADP-Glo kinase assay, oncogenic mutant G106V; format: biochemical; conditions: compared with pY
T1 construct: Full-length p110α was expressed in a complex with full-length p85α (for biochemistry and HDX-MS); 6xHis followed by TEV protease site (N); made in house; host or cells: Spodoptera frugiperda Sf9 (plasmid JB35)
T1 sequence (P42336 whole entry G106V): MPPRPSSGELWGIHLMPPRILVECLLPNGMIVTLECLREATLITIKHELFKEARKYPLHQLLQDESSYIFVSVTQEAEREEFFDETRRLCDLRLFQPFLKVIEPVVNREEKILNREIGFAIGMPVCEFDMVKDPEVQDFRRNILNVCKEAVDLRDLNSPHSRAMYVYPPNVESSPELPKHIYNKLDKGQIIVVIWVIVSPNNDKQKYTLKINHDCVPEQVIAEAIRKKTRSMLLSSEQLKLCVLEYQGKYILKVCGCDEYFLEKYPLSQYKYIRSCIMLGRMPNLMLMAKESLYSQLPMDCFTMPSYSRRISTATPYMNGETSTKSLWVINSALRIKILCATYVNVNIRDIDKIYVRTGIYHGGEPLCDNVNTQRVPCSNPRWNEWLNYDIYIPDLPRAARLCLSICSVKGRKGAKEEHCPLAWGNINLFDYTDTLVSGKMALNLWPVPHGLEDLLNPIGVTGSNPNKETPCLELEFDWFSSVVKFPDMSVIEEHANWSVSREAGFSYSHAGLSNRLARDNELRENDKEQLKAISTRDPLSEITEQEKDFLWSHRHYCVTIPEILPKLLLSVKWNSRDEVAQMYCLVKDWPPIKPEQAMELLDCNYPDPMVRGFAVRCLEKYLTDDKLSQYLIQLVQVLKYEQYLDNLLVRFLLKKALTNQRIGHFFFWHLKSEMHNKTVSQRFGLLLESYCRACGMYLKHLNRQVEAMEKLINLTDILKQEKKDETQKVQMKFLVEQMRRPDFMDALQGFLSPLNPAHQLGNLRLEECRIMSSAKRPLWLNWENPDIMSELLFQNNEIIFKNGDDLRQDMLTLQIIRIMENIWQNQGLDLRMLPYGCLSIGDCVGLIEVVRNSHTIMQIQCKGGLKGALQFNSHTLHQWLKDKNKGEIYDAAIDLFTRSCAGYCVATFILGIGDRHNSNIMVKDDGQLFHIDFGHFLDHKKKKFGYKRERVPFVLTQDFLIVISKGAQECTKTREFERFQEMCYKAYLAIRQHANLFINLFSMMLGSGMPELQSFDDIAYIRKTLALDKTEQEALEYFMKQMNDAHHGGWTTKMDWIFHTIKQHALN
T1 sequence (P27986 whole entry partner): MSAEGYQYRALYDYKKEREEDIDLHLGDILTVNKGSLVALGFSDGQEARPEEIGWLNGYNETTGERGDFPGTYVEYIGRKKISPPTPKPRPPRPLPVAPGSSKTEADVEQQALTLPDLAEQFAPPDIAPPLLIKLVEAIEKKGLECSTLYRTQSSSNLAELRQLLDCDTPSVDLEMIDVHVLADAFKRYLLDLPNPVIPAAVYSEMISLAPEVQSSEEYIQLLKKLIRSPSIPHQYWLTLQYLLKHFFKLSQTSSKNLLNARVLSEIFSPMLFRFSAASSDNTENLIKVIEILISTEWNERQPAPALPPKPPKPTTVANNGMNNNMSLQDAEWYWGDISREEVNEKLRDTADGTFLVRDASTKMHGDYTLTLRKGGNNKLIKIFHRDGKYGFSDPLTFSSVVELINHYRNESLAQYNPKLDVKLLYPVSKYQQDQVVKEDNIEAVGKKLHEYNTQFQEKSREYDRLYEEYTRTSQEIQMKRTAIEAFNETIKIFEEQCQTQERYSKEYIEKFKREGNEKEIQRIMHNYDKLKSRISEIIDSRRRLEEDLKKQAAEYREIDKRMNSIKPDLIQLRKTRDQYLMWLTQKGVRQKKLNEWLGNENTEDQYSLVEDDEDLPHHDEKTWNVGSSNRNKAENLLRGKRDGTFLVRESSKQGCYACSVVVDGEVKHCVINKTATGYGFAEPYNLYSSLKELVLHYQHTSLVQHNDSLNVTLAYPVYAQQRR
Experimental: Co-stimulation of 1938 with pY led to an additive activatory effect for G106V, but not for the N345K and E545K mutants (FIG. 1f/FIG. 22f).
Kinase reactions were performed with ADP-Glo kinase assay kit (Promega Corporation). The enzyme, substrate and compounds were diluted in reaction buffer (20 mM HEPES, 50 mM NaCl, 50 mM KCl, 3 mM MgCl2, 1 mM EGTA, 1 mM TCEP, pH 7.4). Final concentrations of PI3Kα and PI3Kδ used were 25 nM and 50 nM for PI3Kβ. Liposomes (5% brain PI(4,5)P2, 20% brain phosphatidylserine, 45% brain phosphatidylethanolamine, 15% brain phosphatidylcholine, 10% cholesterol, 5% sphingomyelin (Avanti Polar Lipids)) were used at a final concentration of 1 mg/ml. The pY sequence is ESDGG(pY)[…](pY)[…].
For characterisation of the effects of 1938 on in vitro PI3K enzymology, all reactions were performed at room temperature with 384 white-polystyrene plates (Corning #3574). The final DMSO concentration in the assay was between 0.5%-1.8%. The reaction mixture contained 2 μl PI3K enzyme, 2 μl compound and/or pY and 2 μl of liposome substrate mixed with ATP. ATP was used at a final concentration of 200 μM, unless otherwise stated. The enzyme and compounds were pre-incubated for 10 min prior to addition of substrate. […] For enzyme kinetic calculations, data was expressed as velocity (pmol of ADP generated/sec). […]

[1] = tested on: pAKT^S473 in mouse embryonic fibroblasts (MEFs); experiment: pAKT S473 by Wes western blotting in MEFs; format: cell-based
From the text: The inventors next monitored the activation of AKT, the best-known PI3K effector stimulated by PIP3/PI(3,4)P2 production in cells. […] As previously reported, PI3Kα-null MEFs still respond to insulin, but now in a PI3Kβ-dependent manner, as shown by sensitivity of insulin-stimulated pAKT^S473 to the PI3Kβ-selective inhibitor TGX-221 (FIG. 3b). […] Similar observations were made for mTORC1 pathway activation, as measured by S6 (Ser240/44) and 4EBP1 (Ser65) phosphorylation (FIG. 3e). […] Experiments with A549 cells and MEFs were performed separately using slightly different protocols. Briefly, A549 cells were seeded at 200,000 cells per well in 24-well plates in DMEM (10% FBS+1% P/S) and allowed to adhere overnight. The next day, cells were washed once with PBS before addition of serum-free DMEM for 24 h. On the day of treatment, cells were incubated in fresh serum-free DMEM prior to treatment. […]

PI3Kα-WT MEFs = experiment: Cell cycle progression by EdU incorporation in MEFs; format: cell-based, mouse
Experimental: Click-IT EdU strategy was used according to manufacturer instructions (Sigma-Aldrich #BCK-FC488-50). Briefly, MEFs were seeded at 50,000 cells per well in 6-well plates in DMEM supplemented with 10% FBS and 1% P/S, and allowed to attach overnight. The next day, cells were serum-starved for 5 h prior to compound addition in fresh serum-free DMEM. At different time points, cells were pulsed for 3 h with 10 μM EdU, followed by collection by trypsinization and fixation with 3.7% FA in PBS for 15 min in the dark, washed in 3% BSA and permeabilized in 1× saponin-based permeabilization buffer for 20 min in the dark. EdU was then detected using the FAM-azide assay cocktail for 30 min in the dark. Cells were washed twice in 1× saponin-based permeabilization buffer followed by analysed with flow cytometer (Novocyte Advanteon flow cytometer, Agilent).

CCN1CCN(c2ccc(Nc3cc(Nc4cccc5c4N(C(C)=O)CC5)ccn3)cc2)CC1 [Example 1938]
activation of G106V mutant (G106V mutant of p110α): levels comparable with stimulation with pY | EC50 ([1]; Mus musculus, Fibroblast, 0.25 h, read-out: EC50 for induction of pAKT, MEFs, 15 min treatment): 2 to 4 µM | pAKT^S473 in PI3Kα-null MEFs ([1]; PI3Kα-null MEFs, 15 min): no pAKT^S473 phosphorylation was observed | cell cycle progression (EdU incorporation) (PI3Kα-WT MEFs): induced cell cycle progression
